Assay results from patent publication US20260109707A1, “HETEROBIFUNCTIONAL COMPOUNDS AND METHODS OF TREATING DISEASE” (Halda Therapeutics OpCo. Inc., priority 2022, published 2026).

Assays:
BRD4-BD2 = target: T1, BRD4-BD2 (Homo sapiens, UniProt O60885); assay: bromoKdELECT assay for binding affinity to BRD4-BD2; conditions: binding to BRD4-BD2, Table 5
T1 construct: made in house; host or cells: T7 phage grown in an E. coli host derived from the BL21 strain
Procedure: Compounds were tested using a bromoKdELECT assay. T7 phage strains displaying bromodomains were grown in parallel in 24-well blocks in an E. coli host derived from the BL21 strain. E. coli were grown to log-phase and infected with T7 phage from a frozen stock (multiplicity of infection=0.4) and incubated with shaking at 32° C. until lysis (90-150 minutes). The lysates were centrifuged (5,000×g) and filtered ([…]) to remove cell debris. Streptavidin-coated magnetic beads were treated with biotinylated small molecule or acetylated peptide ligands for 30 minutes at room temperature to generate affinity resins for bromodomain assays. The liganded beads were blocked with excess biotin and washed with blocking buffer (SeaBlock (Pierce), 1% BSA, 0.05% Tween 20, 1 mM DTT) to remove unbound ligand and to reduce nonspecific phage binding. Binding reactions were assembled by combining bromodomains, liganded affinity beads, and test compounds in 1× binding buffer (17% SeaBlock, 0.33×PBS, 0.04% Tween 20, 0.02% BSA, 0.004% Sodium azide, 7.4 mM DTT). Test compounds were prepared as 1000× stocks in 100% DMSO. Kds were determined using an 11-point 3-fold compound dilution series with one DMSO control point. All compounds for Kd measurements are distributed by acoustic transfer (non-contact dispensing) in 100% DMSO. The compounds were then diluted directly into the assays such that the final concentration of DMSO was 0.09%. All reactions performed in polypropylene 384-well plates. Each was a final volume of 0.02 ml. The assay plates were incubated at room temperature with shaking for 1 hour and the affinity beads were washed with wash buffer (1×PBS, 0.05% Tween 20). The beads were then resuspended in elution buffer (1×PBS, 0.05% Tween […] non-biotinylated affinity ligand) and incubated at room temperature with shaking for 30 minutes. The bromodomain concentration in the eluates was measured by qPCR.

[1] = target: T2, progesterone receptor ligand binding domain (LBD) (Homo sapiens, UniProt P06401); assay: FP assay for binding affinity to progesterone receptor (PolarScreen Progesterone Receptor Competitor Assay Kit); conditions: fluorescence polarization, GST-tagged PR LBD, Table 13
T2 construct: GST-tagged PR LBD, Fluormone tracer, and compound were mixed and incubated for 2 hours; purchased Life Technologies A15905 or a15906
T2 sequence (P06401 679-913 limits assumed): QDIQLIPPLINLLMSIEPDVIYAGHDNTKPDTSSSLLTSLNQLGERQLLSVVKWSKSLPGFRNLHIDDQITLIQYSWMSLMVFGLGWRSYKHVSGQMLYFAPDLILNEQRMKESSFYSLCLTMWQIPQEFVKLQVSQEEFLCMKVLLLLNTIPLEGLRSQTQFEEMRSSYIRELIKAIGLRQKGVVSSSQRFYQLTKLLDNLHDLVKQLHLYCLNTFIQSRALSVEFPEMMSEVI
Procedure: Compounds were tested using the PolarScreen™ Progesterone Receptor Competitor Assay Kit (Life Technologies Cat #A15905 or a15906), as per the manufacturer's instructions. Briefly, GST-tagged PR LBD, Fluormone tracer, and compound were mixed and incubated for 2 hours at room temperature in the dark. Following incubation, the plates were spun at 3000×g for 30 seconds, then sealed with an optical adhesive cover, and fluorescence polarization was measured using appropriate excitation and emission filters with an EnVision Plate Reader (Perkin Elmer). Compound concentration vs. mP value were plotted in Prism (GraphPad). A four-parameter non-linear regression curve fit was applied to dose-response data to determine the half-maximal inhibitory concentration (IC50) for each test compound.

Row | Compound | Kd (BRD4-BD2) | IC50 [1]
1 | CCNC(=O)C[C@@H]1N=C(c2ccc(N3CCC(OC4CCN(c5ccc(C(=O)N[C@H]6CC[C@H](Oc7ccc(C#N)c(Cl)c7)CC6)nn5)CC4)CC3)cc2)c2c(sc(C)c2C)-n2c(C)nnc21 [I-44] | 50 to 500 nM | –
2 | CCNC(=O)C[C@@H]1N=C(c2ccc(CC3CCN(c4ccc(C(=O)N[C@H]5CC[C@H](Oc6ccc(C#N)c(Cl)c6)CC5)nn4)CC3)cc2)c2c(sc(C)c2C)-n2c(C)nnc21 [I-20] | 50 to 500 nM | –
3 | Cc1sc2c(c1C)C(c1ccc(Cl)cc1)=N[C@@H](CC(=O)NCCOCCOCCOC1CCN(c3ccc(C(=O)N[C@H]4CC[C@H](Oc5ccc(C#N)c(Cl)c5)CC4)nn3)CC1)c1nnc(C)n1-2 [I-2, N-[4-(3-chloro-4-cyano-phenoxy)cyclohexyl]-6-[4-[2-[2-[2-[[2-[(9S)-7-(4-chlorophenyl)-4,5,13-trimethyl-3-thia-1,8,11,12-tetrazatricyclo[8.3.0.0^2,6]trideca-2(6),4,7,10,12-pentaen-9-yl]acetyl]amino]ethoxy]ethoxy]ethoxy]-1-piperidyl]pyridazine-3-carboxamide] | – | 50 to 500 nM
4 | CCNC(=O)C[C@@H]1N=C(c2ccc(N3CC4(C3)CN(c3ccc(C(=O)N[C@H]5CC[C@H](Oc6ccc(C#N)c(Cl)c6)CC5)nn3)C4)cc2)c2c(sc(C)c2C)-n2c(C)nnc21 [I-24] | 50 to 500 nM | –
5 | CCNC(=O)C[C@@H]1N=C(c2ccc(CCCOC3CCN(c4ccc(C(=O)N[C@H]5CC[C@H](Oc6ccc(C#N)c(Cl)c6)CC5)nn4)CC3)cc2)c2c(sc(C)c2C)-n2c(C)nnc21 [I-17] | < 50 nM | –
